Laboratory results taken from ChEMBL document CHEMBL1142836 (Bioorg Med Chem Lett, 2005).

Biological target: Carbonic anhydrase 9 (Homo sapiens, UniProt Q16790)

| Structure (SMILES) | Ki |
| --- | --- |
| CC1CCN(CCC(=O)Nc2ccc(S(N)(=O)=O)cc2)CC1 | 197 nM |
| NS(=O)(=O)c1ccc(NC(=O)CCN2CCC(Cc3ccccc3)CC2)cc1 | 248 nM |
| NS(=O)(=O)c1ccc(NC(=O)CCN2CCN(Cc3ccccc3)CC2)cc1 | 240 nM |
| CN1CCN(CCC(=O)Nc2ccc(S(N)(=O)=O)cc2)CC1 | 235 nM |
| NS(=O)(=O)c1ccc(NC(=O)CCN2CCOCC2)cc1 | 184 nM |
| NS(=O)(=O)c1ccc(NC(=O)CCCN2CCOCC2)cc1 | 246 nM |
| CN1CCN(CCC(=O)Nc2nnc(S(N)(=O)=O)s2)CC1 | 33 nM |

The remaining molecules from weak to strong by Ki, led by results:

| Ki | Structure (SMILES) |
| --- | --- |
| 181 nM | NS(=O)(=O)c1ccc(NC(=O)CN2CCOCC2)cc1 |
| 163 nM | NS(=O)(=O)c1ccc(NC(=O)CCCCN2CCOCC2)cc1 |
| 90 nM | CC1CCN(CCCC(=O)Nc2ccc(S(N)(=O)=O)cc2)CC1 |
| 67 nM | NS(=O)(=O)c1nnc(NC(=O)CN2CCN(Cc3ccccc3)CC2)s1 |
| 35 nM | CC1CCN(CC(=O)Nc2nnc(S(N)(=O)=O)s2)CC1 |
| 31 nM | CN1CCN(CC(=O)Nc2nnc(S(N)(=O)=O)s2)CC1 |
| 22 nM | NS(=O)(=O)c1nnc(NC(=O)CN2CCOCC2)s1 |
